Assay results from patent publication US9394282B2, “Pyrazole carboxamides as Janus kinase inhibitors” (Merck Sharp & Dohme Corp., priority 2011, dated 2016).

target: JAK1 (Homo sapiens (Human), UniProt P23458); test: Jak biochemical HTRF assay, JAK1; details: recombinant purified GST-tagged catalytic domain; HTRF format; [ATP] 31.8 μM
From the text: Jak Biochemical HTRF Assay Protocol
Subsequent reagent additions employed an Agilent Bravo.

Chain of JAK1 (P23458 875-1153): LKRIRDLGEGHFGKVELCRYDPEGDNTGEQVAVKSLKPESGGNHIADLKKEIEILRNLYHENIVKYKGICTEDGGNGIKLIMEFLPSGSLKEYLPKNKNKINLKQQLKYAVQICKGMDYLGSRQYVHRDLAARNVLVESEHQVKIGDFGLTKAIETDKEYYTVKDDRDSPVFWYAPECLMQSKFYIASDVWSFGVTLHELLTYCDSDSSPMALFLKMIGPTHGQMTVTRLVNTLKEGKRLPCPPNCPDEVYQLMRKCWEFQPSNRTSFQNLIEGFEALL

In order of rising IC50:
1. N#C[C@@H]1CCN(C(=O)OCCC2CC2)CC1n1cc(C(N)=O)c(Nc2ccc(F)cc2)n1 (mixture of isomers) [Example 5-91, 2-cyclopropylethyl (3S,4R and 3R,4S)-3-{4-carbamoyl-3-[(4-fluorophenyl)amino]-1H-pyrazol-1-yl}-4-cyanopiperidine-1-carboxylate]  1 nM
2. CCOC(=O)COC(=O)N1CC[C@@H](n2cc(C(N)=O)c(Nc3ccc(F)cc3)n2)[C@H](C#N)C1 (racemic) [Example 5-38, 2-ethoxy-2-oxoethyl (3R,4R and 3S,4S)-4-{4-carbamoyl-3-[(4-fluorophenyl)amino]-1H-pyrazol-1-yl}-3-cyanopiperidine-1-carboxylate]  3 nM
3. N#C[C@@H]1CCN(C(=O)OCC(F)(F)F)CC1n1cc(C(N)=O)c(Nc2ccc(F)cc2)n1 (mixture of isomers) [Example 5-78, 2,2,2-trifluoroethyl (3S,4R and 3R,4S)-3-{4-carbamoyl-3-[(4-fluorophenyl)amino]-1H-pyrazol-1-yl}-4-cyanopiperidine-1-carboxylate]  4 nM
4. N#C[C@@H]1CCN(C(=O)OCCN2CCOCC2)CC1n1cc(C(N)=O)c(Nc2ccc(F)cc2)n1 (mixture of isomers) [Example 5-87, 2-morpholin-4-ylethyl (3S,4R and 3R,4S)-3-{4-carbamoyl-3-[(4-fluorophenyl)amino]-1H-pyrazol-1-yl}-4-cyanopiperidine-1-carboxylate]  4 nM
5. N#C[C@@H]1CCN(C(=O)OC2CCOCC2)CC1n1cc(C(N)=O)c(Nc2ccc(F)cc2)n1 (mixture of isomers) [Example 5-85, tetrahydro-2H-pyran-4-yl (3S,4R and 3R,4S)-3-{4-carbamoyl-3-[(4-fluorophenyl)amino]-1H-pyrazol-1-yl}-4-cyanopiperidine-1-carboxylate]  6 nM
6. CC(C)(C)CCOC(=O)N1CC[C@@H](C#N)C(n2cc(C(N)=O)c(Nc3ccc(F)cc3)n2)C1 (mixture of isomers) [Example 4, 3,3-Dimethylbutyl(3S,4R and 3R,4S)-3-{4-carbamoyl-3-[(4-fluorophenyl)amino]-1H-pyrazol-1-yl}-4-cyanopiperidine-1-carboxylate]  8 nM
7. N#C[C@@H]1CN(C(=O)OCC(F)F)CC[C@H]1n1cc(C(N)=O)c(Nc2ccc(F)cc2)n1 (racemic) [Example 5-16, 2,2-difluoroethyl (3R,4R and 3S,4S)-4-{4-carbamoyl-3-[(4-fluorophenyl)amino]-1H-pyrazol-1-yl}-3-cyanopiperidine-1-carboxylate]  8 nM
8. CCOC(=O)N1CC[C@@H](n2cc(C(N)=O)c(Nc3ccc(F)cc3)n2)[C@H](C#N)C1 (racemic) [Example 5-23, ethyl (3R,4R and 3S,4S)-4-{4-carbamoyl-3-[(4-fluorophenyl)amino]-1H-pyrazol-1-yl}-3-cyanopiperidine-1-carboxylate]  10 nM
9. N#C[C@@H]1CN(C(=O)OCC(F)(F)F)CC[C@H]1n1cc(C(N)=O)c(Nc2ccc(F)cc2)n1 (racemic) [Example 5-28, 2,2,2-trifluoroethyl (3R,4R and 3S,4S)-4-{4-carbamoyl-3-[(4-fluorophenyl)amino]-1H-pyrazol-1-yl}-3-cyanopiperidine-1-carboxylate]  10 nM
10. N#C[C@@H]1CN(C(=O)OC2CCOC2)CC[C@H]1n1cc(C(N)=O)c(Nc2ccc(F)cc2)n1 (mixture of isomers) [Example 5-25, tetrahydrofuran-3-yl (3R,4R and 3S,4S)-4-{4-carbamoyl-3-[(4-fluorophenyl)amino]-1H-pyrazol-1-yl}-3-cyanopiperidine-1-carboxylate]  12 nM
11. CC(C)(C#N)COC(=O)N1CC[C@@H](n2cc(C(N)=O)c(Nc3ccc(F)cc3)n2)[C@H](C#N)C1 (racemic) [Example 5-6, 2-cyano-2-methylpropyl (3R,4R and 3S,4S)-4-{4-carbamoyl-3-[(4-fluorophenyl)amino]-1H-pyrazol-1-yl}-3-cyanopiperidine-1-carboxylate]  15 nM
12. N#C[C@@H]1CN(C(=O)OCCN2CCCC2=O)CC[C@H]1n1cc(C(N)=O)c(Nc2ccc(F)cc2)n1 (racemic) [Example 5-15, 2-(2-oxopyrrolidin-1-yl)ethyl (3R,4R and 3S,4S)-4-{4-carbamoyl-3-[(4-fluorophenyl)amino]-1H-pyrazol-1-yl}-3-cyanopiperidine-1-carboxylate]  19 nM
13. N#C[C@@H]1CN(C(=O)OC2CCOCC2)CC[C@H]1n1cc(C(N)=O)c(Nc2ccc(F)cc2)n1 (racemic) [Example 5-13, tetrahydro-2H-pyran-4-yl (3R,4R and 3S,4S)-4-{4-carbamoyl-3-[(4-fluorophenyl)amino]-1H-pyrazol-1-yl}-3-cyanopiperidine-1-carboxylate]  20 nM
14. N#CCC1(COC(=O)N2CC[C@@H](n3cc(C(N)=O)c(Nc4ccc(F)cc4)n3)[C@H](C#N)C2)CC1 (racemic) [Example 5-39, [1-(cyanomethyl)cyclopropyl]methyl (3R,4R and 3S,4S)-4-{4-carbamoyl-3-[(4-fluorophenyl)amino]-1H-pyrazol-1-yl}-3-cyanopiperidine-1-carboxylate]  25 nM
15. N#C[C@@H]1CN(C(=O)OCCN2CCOCC2)CC[C@H]1n1cc(C(N)=O)c(Nc2ccc(F)cc2)n1 (racemic) [Example 5-4, 2-morpholin-4-ylethyl (3R,4R and 3S,4S)-4-{4-carbamoyl-3-[(4-fluorophenyl)amino]-1H-pyrazol-1-yl}-3-cyanopiperidine-1-carboxylate]  29 nM
16. N#C[C@@H]1CN(C(=O)OC2CCCC2)CC[C@H]1n1cc(C(N)=O)c(Nc2ccc(F)cc2)n1 (racemic) [Example 5-11, cyclopentyl (3R,4R and 3S,4S)-4-{4-carbamoyl-3-[(4-fluorophenyl)amino]-1H-pyrazol-1-yl}-3-cyanopiperidine-1-carboxylate]  29 nM
17. N#C[C@@H]1CN(C(=O)OCC(F)F)CC[C@@H]1n1cc(C(N)=O)c(Nc2ccc(F)cc2)n1 (racemic) [Example 5-65, 2,2-difluoroethyl (3R,4S and 3S,4R)-4-{4-carbamoyl-3-[(4-fluorophenyl)amino]-1H-pyrazol-1-yl}-3-cyanopiperidine-1-carboxylate]  83 nM
18. N#C[C@@H]1CN(C(=O)OCC(F)(F)F)CC[C@@H]1n1cc(C(N)=O)c(Nc2ccc(F)cc2)n1 (racemic) [Example 5-66, 2,2,2-trifluoroethyl (3R,4S and 3S,4R)-4-{4-carbamoyl-3-[(4-fluorophenyl)amino]-1H-pyrazol-1-yl}-3-cyanopiperidine-1-carboxylate]  84 nM
19. CC(C)(COC(=O)N1CC[C@@H](n2cc(C(N)=O)c(Nc3ccc(F)cc3)n2)[C@H](C#N)C1)n1cccn1 (racemic) [Example 5-27, 2-methyl-2-(1H-pyrazol-1-yl)propyl (3R,4R and 3S,4S)-4-{4-carbamoyl-3-[(4-fluorophenyl)amino]-1H-pyrazol-1-yl}-3-cyanopiperidine-1-carboxylate]  92 nM
20. CC(C)(C)COC(=O)N1CC[C@@H](n2cc(C(N)=O)c(Nc3ccc(F)cc3)n2)[C@H](C#N)C1 (racemic) [Example 5-18, 2,2-dimethylpropyl (3R,4R and 3S,4S)-4-{4-carbamoyl-3-[(4-fluorophenyl)amino]-1H-pyrazol-1-yl}-3-cyanopiperidine-1-carboxylatc]  132 nM
21. CCOC(=O)N1CC[C@H](n2cc(C(N)=O)c(Nc3ccc(F)cc3)n2)[C@H](C#N)C1 (racemic) [Example 5-44, ethyl (3R,4S and 3S,4R)-4-{4-carbamoyl-3-[(4-fluorophenyl)amino]-1H-pyrazol-1-yl}-3-cyanopiperidine-1-carboxylate]  200 nM
22. N#C[C@@H]1CN(C(=O)OC2CCOC2)CC[C@@H]1n1cc(C(N)=O)c(Nc2ccc(F)cc2)n1 (mixture of isomers) [Example 5-51, tetrahydrofuran-3-yl (3R,4S and 3S,4R)-4-{4-carbamoyl-3-[(4-fluorophenyl)amino]-1H-pyrazol-1-yl}-3-cyanopiperidine-1-carboxylate]  212 nM
23. N#C[C@@H]1CN(C(=O)OC2CCCC2)CC[C@@H]1n1cc(C(N)=O)c(Nc2ccc(F)cc2)n1 (racemic) [Example 5-49, cyclopentyl (3R,4S and 3S,4R)-4-{4-carbamoyl-3-[(4-fluorophenyl)amino]-1H-pyrazol-1-yl}-3-cyanopiperidine-1-carboxylate]  257 nM
24. CCOC(=O)COC(=O)N1CC[C@H](n2cc(C(N)=O)c(Nc3ccc(F)cc3)n2)[C@H](C#N)C1 (racemic) [Example 5-59, 2-ethoxy-2-oxoethyl (3R,4S and 3S,4R)-4-{4-carbamoyl-3-[(4-fluorophenyl)amino]-1H-pyrazol-1-yl}-3-cyanopiperidine-1-carboxylate]  323 nM
25. N#C[C@@H]1CN(C(=O)OC2CCOCC2)CC[C@@H]1n1cc(C(N)=O)c(Nc2ccc(F)cc2)n1 (racemic) [Example 5-60, tetrahydro-2H-pyran-4-yl (3R,4S and 3S,4R)-4-{4-carbamoyl-3-[(4-fluorophenyl)amino]-1H-pyrazol-1-yl}-3-cyanopiperidine-1-carboxylate]  358 nM
26. N#CCC1(COC(=O)N2CC[C@H](n3cc(C(N)=O)c(Nc4ccc(F)cc4)n3)[C@H](C#N)C2)CC1 (racemic) [Example 5-64, [1-(cyanomethyl)cyclopropyl]methyl (3R,4S and 3S,4R)-4-{4-carbamoyl-3-[(4-fluorophenyl)amino]-1H-pyrazol-1-yl}-3-cyanopiperidine-1-carboxylate]  440 nM
27. CC(C)(COC(=O)N1CC[C@H](n2cc(C(N)=O)c(Nc3ccc(F)cc3)n2)[C@H](C#N)C1)n1cccn1 (racemic) [Example 5-53, 2-methyl-2-(1H-pyrazol-1-yl)propyl (3R,4S and 3S,4R)-4-{4-carbamoyl-3-[(4-fluorophenyl)amino]-1H-pyrazol-1-yl}-3-cyanopiperidine-1-carboxylate]  445 nM
28. CC(C)(C)COC(=O)N1CC[C@H](n2cc(C(N)=O)c(Nc3ccc(F)cc3)n2)[C@H](C#N)C1 (racemic) [Example 5-50, 2,2-dimethylpropyl (3R,4S and 3S,4R)-4-{4-carbamoyl-3-[(4-fluorophenyl)amino]-1H-pyrazol-1-yl}-3-cyanopiperidine-1-carboxylate]  625 nM
